What all share (assay type): cell-based
The test system of experiment [1] is MDA-MB-231. The experiment can be described thus: MTT cell viability assay, MDA-MB-231. The conditions noted are these: Homo sapiens. (In general: Tetrazolium assays rely on reduction of a dye to a coloured formazan, in cell work by metabolically active cells.)
Experiment [2] has as its system MCF-7. The experiment can be described thus: MTT cell viability assay, MCF-7. The conditions noted are these: Homo sapiens, MTT, 72-hour incubation, read-out: IC50/μM MCF-7.
Experiment [3] concerns MEF (C57BL/6). The experiment can be described thus: MTT cell viability assay, MEF (C57BL/6). The conditions noted are these: Mus musculus.
The mark [4] stands for this setting: MTT, 72-hour incubation, read-out: IC50/μM MEF (C57BL/6).
Setting [5] is: MDA-MB-231, 72 h, 72-hour incubation.
Where [6] appears, read: 72 h, read-out: IC50/μM MEF (C57BL/6), MTT, 72-hour incubation.

Where two headings read alike, the source gives them in different places.

As for `CCn1c(=O)/c(=C2\Sc3cc(Cl)ccc3N2C)s/c1=C\c1scc[n+]1CCc1ccc(Cl)cc1` [JG-385], the IC50 worked out at 0.61 ± 0.05 µM in experiment [1] (MDA-MB-231, 72-hour incubation); 0.69 ± 0.05 µM in experiment [2] (MCF7); 4.4 ± 0.3 µM in experiment [3] (setting [4]).

Regarding `CN1/C(=c2\s/c(=C\c3scc[n+]3Cc3ccccc3)n(C)c2=O)Sc2cc(F)cc(F)c21` [JG-282], the IC50 in experiment [1] (MDA-MB-231, 72-hour incubation) worked out at 0.26 ± 0.03 µM; in experiment [2] (MCF7), 0.29 ± 0.04 µM; in experiment [3] (setting [4]) it was 2.5 ± 0.1 µM.

As for `CCn1c(=O)/c(=C2\Sc3ccc(C)cc3N2C)s/c1=C\c1scc[n+]1Cc1ccccc1OC(F)(F)F` [JG-368], the IC50 in experiment [1] (setting [5]) stood at 0.18 ± 0.01 µM; in experiment [2] (MCF7, 72 h) it was 0.089 ± 0.006 µM; in experiment [3] (setting [6]) it was 1.4 ± 0.1 µM.

Turning to `CCn1c(=O)/c(=C2\Sc3cc(C#N)ccc3N2C)s/c1=C\c1scc[n+]1Cc1ccccc1` [JG-360], the IC50 amounted to 2.3 ± 0.1 µM in experiment [1] (MDA-MB-231, 72-hour incubation); 1.3 ± 0.1 µM in experiment [2] (MCF7); 2.3 ± 0.1 µM in experiment [3] (setting [4]).

Regarding `CCn1c(=O)/c(=C2\Sc3cc(Cl)ccc3N2C)s/c1=C\c1scc[n+]1CCc1cccc(C(F)(F)F)c1` [JG-383], the IC50 in experiment [1] (MDA-MB-231, 72-hour incubation) turned out to be 0.74 ± 0.08 µM; in experiment [2] (MCF7), 0.78 ± 0.06 µM; in experiment [3] (setting [4]), 2.3 ± 0.2 µM.

In the case of `CCc1ccc2c(c1)S/C(=c1/s/c(=C\c3scc[n+]3Cc3c(C)cccc3C)n(CC)c1=O)N2C` [JG-343], the IC50 in experiment [1] (MDA-MB-231, 72-hour incubation) was found to be 0.25 ± 0.01 µM; in experiment [2] (MCF7), 0.22 ± 0.02 µM; in experiment [3] (setting [4]), 0.64 ± 0.01 µM.

Consider `CCn1c(=O)/c(=C2\Sc3cc(OC)ccc3N2C)s/c1=C\c1scc[n+]1Cc1cc(C)sc1C` [JG-353], for which the IC50 is 0.15 ± 0.01 µM in experiment [1] (MDA-MB-231, 72-hour incubation); 0.15 ± 0.01 µM in experiment [2] (MCF7); 1.1 ± 0.1 µM in experiment [3] (setting [4]).

For `CCn1c(=O)/c(=C2\Sc3cc(OC)ccc3N2C)s/c1=C\c1scc[n+]1Cc1ccccc1OC` [JG-352], the IC50 in experiment [1] (setting [5]) was 0.062 ± 0.006 µM; in experiment [2] (MCF7, 72 h), 0.076 ± 0.005 µM; in experiment [3] (setting [6]), 0.77 ± 0.03 µM.

`CCn1c(=O)/c(=C2\Sc3cc(OC)ccc3N2C)s/c1=C\c1scc[n+]1CCc1ccccc1OC` [JG-397]: the IC50 came to 0.083 ± 0.007 µM in experiment [1] (MDA-MB-231, 72-hour incubation); 0.08 ± 0.008 µM in experiment [2] (MCF7); 1.3 ± 0.1 µM in experiment [3] (setting [4]).

On to `CCn1c(=O)/c(=C2\Sc3cc(OC)ccc3N2C)s/c1=C\c1scc[n+]1CCc1ccccc1C` [JG-398], for which the IC50 worked out at 0.14 ± 0.01 µM in experiment [1] (MDA-MB-231, 72-hour incubation); 0.24 ± 0.02 µM in experiment [2] (MCF7); 1.1 ± 0.1 µM in experiment [3] (setting [4]).

Turning to `CCn1c(=O)/c(=C2\Sc3cc([N+](=O)[O-])ccc3N2C)s/c1=C\c1scc[n+]1Cc1ccccc1` [JG-252], the figures for the IC50 in experiment [1] (setting [5]), in experiment [2] (MCF7) and in experiment [3] (setting [6]) were 4.8 ± 0.4 µM, over 5 µM and 2.8 ± 0.1 µM, respectively.

For the molecule `CCn1c(=O)/c(=C2\Sc3cc(C)ccc3N2C)s/c1=C\c1scc[n+]1CCc1ccccc1C` [JG-392], the IC50 worked out at 0.19 ± 0.02 µM in experiment [1] (MDA-MB-231, 72-hour incubation); 0.35 ± 0.03 µM in experiment [2] (MCF7); 1.2 ± 0.1 µM in experiment [3] (setting [4]).

As for `CCn1c(=O)/c(=C2\Sc3cc(OC)ccc3N2C)s/c1=C\c1scc[n+]1Cc1c(C)cccc1C` [JG-349], the IC50 in experiment [1] (MDA-MB-231, 72-hour incubation) is 0.23 ± 0.01 µM; in experiment [2] (MCF7), 0.12 ± 0.01 µM; in experiment [3] (setting [4]) it was 1.1 ± 0.1 µM.

Regarding `CCn1c(=O)/c(=C2\Sc3cc(Cl)ccc3N2C)s/c1=C\c1scc[n+]1Cc1c(C)noc1C` [JG-267], the IC50 in experiment [1] (MDA-MB-231, 72-hour incubation) is 10 ± 2 µM; in experiment [2] (MCF7) it was over 5 µM; in experiment [3] (setting [6]) it was 7.6 ± 0.3 µM.

With `CCn1c(=O)/c(=C2\Sc3cc(OC)ccc3N2C)s/c1=C\c1scc[n+]1Cc1ccccc1SC(F)(F)F` [JG-350], the IC50 turned out to be 0.1 ± 0.01 µM in experiment [1] (MDA-MB-231, 72-hour incubation); 0.059 ± 0.007 µM in experiment [2] (MCF7); 1.2 ± 0.1 µM in experiment [3] (setting [4]).

For the molecule `CCn1c(=O)/c(=C2\Sc3cc(C)ccc3N2C)s/c1=C\c1scc[n+]1Cc1ccccc1Cl` [JG-283], the IC50 worked out at 0.088 ± 0.005 µM in experiment [1] (MDA-MB-231, 72-hour incubation); 0.063 ± 0.007 µM in experiment [2] (MCF7); 0.45 ± 0.02 µM in experiment [3] (setting [4]).

Values taken from US10221171B2, “Oxathiazole thiazolium Hsp 70 inhibitors” (THE REGENTS OF THE UNIVERSITY OF CALIFORNIA, priority 2015, dated 2019).
